Assay results taken from US20210251972A1, “Methods Of Treating Fabry Disease” (Amicus Therapeutics, Inc., priority 2020, published 2021).

System: ERT-experienced patients with Fabry disease and migalastat-amenable GLA variants
Test: Composite clinical outcomes (CCOs) in ATTRACT (AT1001-012) and open-label extension studies AT1001-041/AT1001-042, Phase 3
Assay type: in vivo, human
Settings: for Incidence rate of composite clinical outcomes (CCOs): all patients; for Median time to first CCO: overall
Text: Patients initiated ERT ≥12 months prior to the study.
AT1001-041 (NCT01458119) was a long-term OLE study evaluating the long-term safety and efficacy of migalastat in patients completing a previous migalastat study.
AT1001-042 (NCT02194985) is an ongoing, long-term OLE study evaluating the long-term safety and efficacy of migalastat in patients who participated in AT1001-012 or AT1001-041.
CCOs were defined prior to the planned analysis and included: • Renal events (a decrease in eGFRCKD-EPI≥15 mL/min/1.73 m^2, with the decreased eGFR<90 mL/min/1.73 m^2 relative to baseline; or an increase in 24-hour urine protein≥33%, with elevated protein≥300 mg relative to baseline) • Cardiac events (myocardial infarction; unstable cardiac angina; new symptomatic arrhythmia requiring antiarrhythmic medication, direct current cardioversion, pacemaker, or defibrillator implantation; congestive heart failure [New York Association Class III or IV]) • Cerebrovascular events (stroke or transient ischemic attack) • Death
Exposure to migalastat was calculated from the day of the first dose to the last available data point or the date of discontinuation; for this analysis, the exposure to ERT comprised the duration of participation in the ATTRACT study, and lasted up to 18 months.
Incidence rates were calculated for renal, cerebrovascular, and cardiac events separately and for the composite clinical outcomes. All individual events were accounted for when calculating incidence. Median times to the first clinical event were calculated based on the same data used for the incidence rates.
A direct comparison between migalastat and ERT was based on the 18 months exposure (the ERT data were from first 18 months in ATTRACT only); in addition, the incidence of CCOs for the whole follow-up period was calculated for migalastat (ATTRACT and subsequent OLE studies)
The long-term incidence for migalastat was calculated based on all available data for migalastat.

Molecule	Incidence rate of composite clinical outcomes (CCOs) (first 18 months of treatment)	Incidence rate, cardiac event (females, at 18 months)	Incidence rate, cerebrovascular event (females, at 18 months)	Incidence rate, composite clinical outcome (females, at 18 months)	Incidence rate, death (females, at 18 months)	Incidence rate, renal event (females, at 18 months)	Incidence rate, cardiac event (males, at 18 months)	Incidence rate, cerebrovascular event (males, at 18 months)	Incidence rate, composite clinical outcome (males, at 18 months)	Incidence rate, death (males, at 18 months)	Incidence rate, renal event (males, at 18 months)	also measured
Cl.OC[C@H]1NC[C@H](O)[C@@H](O)[C@H]1O [Migalastat, (2R,3S,4R,5S)-2-(hydroxymethyl) piperdine-3,4,5-triol]	0.41 per patient·year	0.05 per patient·year	0 per patient·year	0.34 per patient·year	0 per patient·year	0.29 per patient·year	0.07 per patient·year	0 per patient·year	0.50 per patient·year	0 per patient·year	0.43 per patient·year	Incidence rate of composite clinical outcomes (CCOs) (long-term follow-up, at the data cutoff (median 4.8 years)): 0.45 per patient·year; Median time to first composite clinical outcome (females, 0-4.8 years): 1.15 Years; Incidence rate, cardiac event (females, at 4.8 years): 0.02 per patient·year; Incidence rate, cerebrovascular event (females, at 4.8 years): 0.02 per patient·year; Incidence rate, death (females, at 4.8 years): 0 per patient·year; Incidence rate, renal event (females, at 4.8 years): 0.33 per patient·year; Incidence rate, composite clinical outcome (females, at 4.8 years (data cutoff)): 0.37 per patient·year; Median time to first composite clinical outcome (males, 0-4.8 years): 1.30 Years; Incidence rate, cardiac event (males, at 4.8 years): 0.04 per patient·year; Incidence rate, cerebrovascular event (males, at 4.8 years): 0.01 per patient·year; Incidence rate, death (males, at 4.8 years): 0 per patient·year; Incidence rate, renal event (males, at 4.8 years): 0.51 per patient·year; Incidence rate, composite clinical outcome (males, at 4.8 years (data cutoff)): 0.56 per patient·year; Median time to first CCO (migalastat exposure (0-4.8 years)): 1.17 years
ERT: enzyme replacement therapy: infusion of purified α-Gal A, e.g. agalsidase alfa (Replagal) or agalsidase beta (Fabrazyme) (protein, UniProt P06280 32-429, looked up) Alpha-galactosidase A: LDNGLARTPTMGWLHWERFMCNLDCQEEPDSCISEKLFMEMAELMVSEGWKDAGYEYLCIDDCWMAPQRDSEGRLQADPQRFPHGIRQLANYVHSKGLKLGIYADVGNKTCAGFPGSFGYYDIDAQTFADWGVDLLKFDGCYCDSLENLADGYKHMSLALNRTGRSIVYSCEWPLYMWPFQKPNYTEIRQYCNHWRNFADIDDSWKSIKSILDWTSFNQERIVDVAGPGGWNDPDMLVIGNFGLSWNQQVTQMALWAIMAAPLFMSNDLRHISPQAKALLQDKDVIAINQDPLGKQGYQLRQGDNFEVWERPLSGLAWAVAMINRQEIGGPRSYTIAVASLGKGVACNPACFITQLLPVKRKLGFYEWTSRLRSHINPTGTVLLQLENTMQMSLKDLL	0.85 per patient·year	0.42 per patient·year	0 per patient·year	0.98 per patient·year	0 per patient·year	0.56 per patient·year	0 per patient·year	0.10 per patient·year	0.68 per patient·year	0 per patient·year	0.58 per patient·year	Median time to first composite clinical outcome (females, 0-18 months): 0.35 Years; Median time to first composite clinical outcome (males, 0-18 months): 0.25 Years; Median time to first CCO (ERT exposure (0-18 months)): 0.25 years
